# Assays:
# [1] = system: primary CD8+ T-cells from melanoma bearing C57BL/6 mice; assay: Transwell migration of primary CD8+ T-cells through collagen type-IV; assay type: cell-based, murine; settings: peptide
# Experimental: (§1) FIGS. 4A-4H. […] Briefly, membranes from transwell migration chambers were coated with either native collagen type-IV or denatured collagen type-IV. T-cell variants were incubated with non-specific control peptide CP, or the RGDKGE (SEQ ID NO: 1)-containing collagen peptide (P2) and seed on the coated transwell membranes. T-cells were allowed to migrate in the presence or absence of SDF-1 added to the lower chamber for approximately 1.5 hours. Cell migration was quantified by counting the number of crystal violet stained cells that had migrated through to the underside of the coated membrane. FIG. 4A. Jurkat T-cell migration through denatured collagen type-IV in the presence of non-specific control peptide CP or RGDKGE (SEQ ID NO: 1)-containing collagen peptide P2 with SDF-1. FIG. 4B. Jurkat T-cell migration through native collagen type-IV in the presence of non-specific control peptide CP or RGDKGE (SEQ ID NO: 1)-containing collagen peptide P2 with SDF-1. FIG. 4C. Cem/C1 T-cell migration through denatured collagen type-IV in the presence of non-specific control peptide CP or RGDKGE (SEQ ID NO: 1)-containing collagen peptide P2 with SDF-1. FIG. 4D. […]
# FIGS. 5A-5F. […] Cell migration was quantified by counting the number of crystal violet stained cells that had migrated through to the underside of the coated membrane. […]
# Cem/C1 T-cells = assay: Transwell migration of Cem/C1 T-cells through collagen type-IV; assay type: cell-based; settings: peptide, SDF-1
# Experimental: as §1, with “4B.” for “4B. Jurkat T-cell migration through native collagen type-IV in the presence of non-specific control peptide CP or RGDKGE (SEQ ID NO: 1)-containing collagen peptide P2 with SDF-1. FIG. 4C. Cem/C1 T-cell migration through denatured collagen type-IV in the presence of non-specific control peptide CP or RGDKGE (SEQ ID NO: 1)-containing collagen peptide P2 with SDF-1. FIG. 4D.”
# Given our new observations, and the fact that many tumor types as well as immunosuppressive macrophages can secrete the small soluble RGDKGE (SEQ ID NO: 1) collagen peptide, we next sought to determine whether this soluble collagen peptide could impact T-cell migration through denatured collagen type-IV, a critical ECM component shown to be selectively enriched in tumor vessels. […] Cell migration was quantified following staining cells with crystal violet (6,8). […]
sequence,measurement,setting,value
"QGPRGDKGE (CQGPRGDKGEC; Synthetic: Synthetic collagen RGD containing peptide P-2) [Peptide P2, synthetic version of the soluble RGDKGE-containing collagen peptide]",primary murine CD8+ T-cell migration,"[1]; denatured collagen type-IV, SDF-1, compared to CP",selectively inhibited
same,primary murine CD8+ T-cell migration,"[1]; native collagen type-IV, SDF-1","neither the RGDKGE (SEQ ID NO: 1) collagen peptide P2, nor the non-specific control peptide CP had any significant impact"
same,Cem/C1 T-cell migration,Cem/C1 T-cells; denatured collagen type-IV,selectively inhibited
same,Cem/C1 T-cell migration,Cem/C1 T-cells; native collagen type-IV,"neither the soluble RGDKGE (SEQ ID NO: 1) collagen peptide P2, nor the non-specific control peptide had any significant effect"

# — patent US20240327506A1, “METHODS AND COMPOSITION FOR THE SELECTIVE ENHANCEMENT OF ADOPTIVE CELL THERAPY” (MaineHealth, priority 2023, published 2024)
